This note sets out measurements from patent publication US20260001853A1, “ASCORBIC ACID DERIVATIVE OR SALT THEREOF, AND COSMETIC THEREOF” (SEIWA KASEI COMPANY, LIMITED, priority 2022, published 2026).

The test system of data set [1] is Normal human dermal fibroblasts. Nature of the data set: Collagen production promoting effect (ELISA of supernatant). It is filed as cell-based. Conditions: amount of collagen produced, % with control group taken as 100%; sample at 10 mmol/L or less, 48 hours, N=3. As to the method: Normal human dermal fibroblasts were prepared in D-MEM containing 5% (v/v) fetal bovine serum to a cell density of […] cells/well, and pre incubated on a 96-well plate for 24 hours. After removing the medium, samples prepared to a predetermined concentration in D-MEM containing 5% (v/v) fetal bovine serum were added to each well and cultured for 48 hours. After completion of the culture, the amount of free collagen in the supernatant was quantified by ELISA method. The measurement was performed with N=3.
The amount of collagen produced when the samples were measured at a concentration of 10 mmol/L or less was compared with that of the control group, and the results (% values when the control group is taken as 100%) are shown in Tables 15 to 17 based on the following criteria. • <100%: ± • 100-120%: + • 120%: ++
(ELISA stands for enzyme-linked immunosorbent assay.)

The nature of data set [2]: Stability test (residual rate by HPLC, odor, coloring). It is filed as physicochemical. The note with it: 1% aqueous solution; for Coloring / Odor: total score of 10 panelists. As to the method: With a dilute potassium hydroxide aqueous solution, 1% aqueous solution of each test sample was adjusted to pH 6, placed in a 50 mL screw tube, sealed, […], and then subjected to HPLC measurement (using a liquid chromatograph manufactured by Shimadzu Corporation) to determine the residual rate from the peak area. The residual rate, odor, and coloring degree were evaluated according to the following methods and criteria.
Residual rate: • ⊚: 90% or more • ◯: 80% or more, less than 90% • Δ: 60% or more, less than 80% • x: 20% or more, less than 60% • xx: Less than 20%
Evaluation was made by 10 panelists according to the following criteria. • 3: Almost odorless • 2: There is a slight strange odor. • 1: A strong odor is detected.
Based on the evaluation results, the following classification was made: • ⊚: Total score of 10 panelists is 25 or more • ◯: Total score of 10 panelists is 20-24 • Δ: Total score of 10 panelists is 16-19 • x: The total score of 10 panelists is 15 or less
Evaluation was made by 10 panelists according to the following criteria. • 3: Almost no change compared to immediately after preparation. • 2: Color changes compared to immediately after preparation. • 1: Strongly colored compared to immediately after preparation.
Based on the evaluation results, the following classification was made: • ◯: Total score of 10 panelists is 25 or more • Δ: Total score of 10 panelists is 16-24 • x: The total score of 10 panelists is 15 or less

The next data set has as its system B16 melanoma 4A5 cells. As to the kind of experiment: Melanin production inhibitory effect (theophylline-induced melanin production). It is filed as cell-based, mouse. The note with it: melanin production inhibition rate, sample at a concentration of 10 mM or less, 3 days culture, theophylline 1 mmol/L, N=4. As to the method:
As a test of the whitening effect, the effect on theophylline-induced melanin production in B16 melanoma 4A5 cells was evaluated for the ascorbic acid derivatives of the present invention according to the following procedure. A similar evaluation was also performed for a known ascorbic acid derivative for comparison. The results are shown in Tables 9 to 11. • (1) B16 mouse melanoma 4A5 cells were seeded in a 48-well plate at a cell density of 8.0×10^3 cells/well. • (2) After culturing for 24 hours in Dulbecco's modified Eagle's medium (manufactured by SIGMA, hereinafter abbreviated as “D-MEM”) containing 10% fetal bovine serum, the medium was replaced with D-MEM containing 10% fetal bovine serum containing theophylline (final concentration 1 mmol/L) and a specified concentration of a sample. • (3) After culturing for 3 days in the presence of the sample, the medium was removed using an aspirator, distilled water was added, and the cells were disrupted by ultrasonication. • (4) The amount of protein was then quantified using a BCA protein assay kit (manufactured by PIERCE), and the amount of melanin produced was measured by an alkali solubilization method. Sodium hydroxide was added to the cell lysate to a final concentration of 1 mol/L, and the solution was dissolved by heating (60° C., 30 minutes), thereafter the absorbance at 405 nm was measured using a microplate reader. The amount of melanin was calculated from a calibration curve prepared using synthetic melanin (SIGMA) as a standard. The amount of melanin per unit protein was calculated by dividing the amount of melanin by the amount of protein. • (5) The melanin production inhibition rate was calculated using the following formula.
[In the formula, A represents the amount of melanin per unit protein (g/g) when the sample was added, B represents the amount of melanin per unit protein (g/g) in the normal group, and C represents the amount of melanin per unit protein (g/g) in the control group.]
The melanin production inhibition rate when the sample was measured at a concentration of 10 mM or less is expressed as follows. The measurement was performed with N=4. • <20%: ± • 20-40%: + • 40-60%: ++ • 60-100%: +++

In data set [3] the test system is Normal human dermal fibroblasts (NHDF). Nature of the data set: Hyaluronic acid production promoting effect (ELISA of supernatant). The note with it: amount of hyaluronic acid produced, % with control group taken as 100%; sample at 10 mmol/L or less, 48 hours, N=3. It is filed as cell-based. As to the method:
Normal human dermal fibroblasts (NHDF) were prepared in D-MEM containing 5% (v/v) fetal bovine serum to a cell density of 2.5× 10^4 cells/well, and then pre-incubated on a 96-well plate for 24 hours. After removing the medium, samples prepared in serum-free D-MEM were added to each well and cultured for 48 hours. After the culture was completed, the amount of hyaluronic acid in the supernatant was quantified by ELISA method. The measurement was performed with N=3.
The amount of hyaluronic acid produced when the samples were measured at a concentration of 10 mmol/L or less was compared with that of the control group, and the results (% values when the control group is taken as 100%) are shown in Tables 18 to 20 based on the following criteria. • <100%: ± • 100-120%: + • 120-150%: ++ • 150%: +++

Where [4] appears, read: pH 6, stored at 50° C., four weeks later.
Setting [5] is: pH 6, stored at 50° C., two weeks later.

Molecules are shown by their SMILES.

On to `CCCCCCCCCCCCOC1=C(OCC(C)(C)O)C(=O)O[C@@H]1[C@@H](O)CO` [Synthesis Example 8, 2-O-(2-hydroxyisobutyl)-3-O-dodecyl ascorbic acid], for which the “Collagen production promoting effect” value in data set [1] is recorded as “++ (120%: ++)”. Further, in data set [2] (pH 6, 50° C., initial), the Residual rate result is on record as “⊚ (⊚: 90% or more)”, the Coloring result is “◯ (◯: Total score of 10 panelists is 25 or more)” and the Odor entry is “◯ (◯: Total score of 10 panelists is 20-24)”. In data set [2] (setting [4]), the Residual rate result is “⊚ (⊚: 90% or more)”, the Coloring entry is “◯ (◯: Total score of 10 panelists is 25 or more)” and the Odor result is on record as “◯ (◯: Total score of 10 panelists is 20-24)”. Besides, in data set [2] (setting [5]), the Residual rate result was “⊚ (⊚: 90% or more)”, the Coloring result is given as “◯ (◯: Total score of 10 panelists is 25 or more)” and the Odor result is “◯ (◯: Total score of 10 panelists is 20-24)”. Moreover, the “Melanin production inhibition effect” value with B16 melanoma 4A5 cells is “++ (40-60%: ++)”. Moreover, the “Hyaluronic acid production promoting effect” value in data set [3] is reported as “+++ (150%: +++)”.

Consider `CCCCOCC(O)COC1=C(OCC(C)(C)O)C(=O)OC1C(O)CO` (stereo not drawn) [Synthesis Example 14, 2-O-(2-hydroxyisobutyl)-3-O-(2-hydroxy-3-O-butyl) ascorbic acid], for which the “Collagen production promoting effect” value in data set [1] is listed as “++ (120%: ++)”. In data set [2] (pH 6, 50° C., initial), the Residual rate entry was “⊚ (⊚: 90% or more)”, the Coloring entry is listed as “◯ (◯: Total score of 10 panelists is 25 or more)” and the Odor result is reported as “⊚ (⊚: Total score of 10 panelists is 25 or more)”. Moreover, in data set [2] (setting [4]), the Residual rate entry is “⊚ (⊚: 90% or more)”, the Coloring result was “◯ (◯: Total score of 10 panelists is 25 or more)” and the Odor result is “◯ (◯: Total score of 10 panelists is 20-24)”. Also, in data set [2] (setting [5]), the Residual rate entry is on record as “⊚ (⊚: 90% or more)”, the Coloring entry is on record as “◯ (◯: Total score of 10 panelists is 25 or more)” and the Odor result is “⊚ (⊚: Total score of 10 panelists is 25 or more)”. The “Melanin production inhibition effect” value in the data set on B16 melanoma 4A5 cells is “++ (40-60%: ++)”. Moreover, the “Hyaluronic acid production promoting effect” value in data set [3] is on record as “++ (120-150%: ++)”.

`CCCCCCCCOC1=C(OCC(C)(C)O)[C@@H]([C@@H](O)CO)OC1=O` [Synthesis Example 21, 2-O-octyl-3-O-(2-hydroxyisobutyl) ascorbic acid]: the “Collagen production promoting effect” value in data set [1] is given as “++ (120%: ++)”. Also, the “Melanin production inhibition effect” value with B16 melanoma 4A5 cells is reported as “++ (40-60%: ++)”. For the same compound, the “Hyaluronic acid production promoting effect” value in data set [3] is listed as “+++ (150%: +++)”.

Turning to `CCCCCCCCCCCCOC1=C(OCC(C)(C)O)[C@@H]([C@@H](O)CO)OC1=O` [Synthesis Example 23, 2-O-dodecyl-3-O-(2-hydroxyisobutyl) ascorbic acid], the “Collagen production promoting effect” value in data set [1] is reported as “++ (120%: ++)”. Moreover, the “Melanin production inhibition effect” value in the data set on B16 melanoma 4A5 cells is on record as “+++ (60-100%: +++)”. In addition, the “Hyaluronic acid production promoting effect” value in data set [3] was “++ (120-150%: ++)”.

Consider `CCCCCCCCCCCCCCCCOC1=C(OCC(C)(C)O)[C@@H]([C@@H](O)CO)OC1=O` [Synthesis Example 25, 2-O-hexadecyl-3-O-(2-hydroxyisobutyl) ascorbic acid], for which the “Collagen production promoting effect” value in data set [1] is recorded as “++ (120%: ++)”. Besides, the “Melanin production inhibition effect” value in the data set on B16 melanoma 4A5 cells is “+ (20-40%: +)”. For the same compound, the “Hyaluronic acid production promoting effect” value in data set [3] is on record as “++ (120-150%: ++)”.

Consider `C=CCOC1=C(OCC(C)(C)O)[C@@H]([C@@H](O)CO)OC1=O` [Synthesis Example 26, 2-O-allyl-3-O-(2-hydroxyisobutyl) ascorbic acid], for which the “Collagen production promoting effect” value in data set [1] is listed as “++ (120%: ++)”. For the same compound, the “Melanin production inhibition effect” value with B16 melanoma 4A5 cells was “+ (20-40%: +)”. Also, the “Hyaluronic acid production promoting effect” value in data set [3] is reported as “++ (120-150%: ++)”.

For the compound `CC(C)(O)COC1=C(OCc2ccccc2)C(=O)O[C@@H]1[C@@H](O)CO` [Synthesis Example 27, 2-O-benzyl-3-O-(2-hydroxyisobutyl) ascorbic acid], the “Collagen production promoting effect” value in data set [1] is “++ (120%: ++)”. Further, the “Melanin production inhibition effect” value in the data set with B16 melanoma 4A5 cells was “++ (40-60%: ++)”. Also, in data set [3], the “Hyaluronic acid production promoting effect” value is “+++ (150%: +++)”.

Regarding `CCCOC1=C(OCC(C)(C)O)C(=O)O[C@@H]1[C@@H](O)CO` [Synthesis Example 32, 2-O-(2-hydroxyisobutyl)-3-O-propylascorbic acid], the “Collagen production promoting effect” value in data set [1] is recorded as “++ (120%: ++)”. Besides, in the data set on B16 melanoma 4A5 cells, the “Melanin production inhibition effect” value is reported as “++ (40-60%: ++)”. Also, the “Hyaluronic acid production promoting effect” value in data set [3] was “++ (120-150%: ++)”.

With `CCCOC1=C(OCC(C)(C)O)[C@@H]([C@@H](O)CO)OC1=O` [Synthesis Example 33, 2-O-propyl-3-O-(2-hydroxyisobutyl) ascorbic acid], in data set [1], the “Collagen production promoting effect” value is reported as “++ (120%: ++)”. Besides, the “Melanin production inhibition effect” value with B16 melanoma 4A5 cells was “++ (40-60%: ++)”. The “Hyaluronic acid production promoting effect” value in data set [3] was “++ (120-150%: ++)”.

In the case of `CC(O)COC1=C(OCC(C)(C)O)C(=O)O[C@@H]1[C@@H](O)CO` (stereo partly drawn) [Synthesis Example 34, 2-O-(2-hydroxyisobutyl)-3-O-(2-hydroxypropyl) ascorbic acid], in data set [1], the “Collagen production promoting effect” value was “+ (100-120%: +)”. The “Melanin production inhibition effect” value in the data set with B16 melanoma 4A5 cells was “+++ (60-100%: +++)”. Further, the “Hyaluronic acid production promoting effect” value in data set [3] was “++ (120-150%: ++)”.

As to `CCC(O)COC1=C(OCC(C)(C)O)C(=O)O[C@@H]1[C@@H](O)CO` (stereo partly drawn) [Synthesis Example 35, 2-O-(2-hydroxyisobutyl)-3-O-(2-hydroxybutyl) ascorbic acid], the “Collagen production promoting effect” value in data set [1] is listed as “++ (120%: ++)”. Moreover, the “Melanin production inhibition effect” value in the data set with B16 melanoma 4A5 cells was “++ (40-60%: ++)”. Further, in data set [3], the “Hyaluronic acid production promoting effect” value was “++ (120-150%: ++)”.
